Assay results from patent publication US20170112877A1, “NON-TOXIC AGENT FOR A BROAD-SPECTRUM, BACTERICIDAL OR BACTERIOSTATIC TREATMENT OF ANTIBIOTIC-RESISTANT BACTERIA IN ANIMALS” (LIVELEAF, INC., priority 2015, published 2017).

Tests used:
[1] = Amount of hydrogen peroxide bound to model compounds or extracts in dry form (peroxide test strip); assay type: physicochemical
Source text: Art-recognized procedures, such as those set-forth at least in U.S. Pat. Nos. 3,860,694; 3,864,454; 4,171,280; and 4,966,762, were used as a guide for this study. […] As discussed, one of skill will appreciate that hydrogen peroxide in a free form, for example, would otherwise quickly degrade. The polyphenols were provided from model compounds or plant extracts. A dry form of the compositions was made between (i) gallic acid (a model polyphenol building block from Sigma-Aldrich) and hydrogen peroxide; (ii) tannic acid (a model polyphenol component from Sigma-Aldrich) and hydrogen peroxide; (iii) pomegranate husk extract and hydrogen peroxide; and, (iv) green tea extract and hydrogen peroxide, using the procedures taught herein, including: • i. adding a solution of 35% hydrogen peroxide slowly into each of the gallic acid powder, tannic powder, pomegranate husk extract powder, or green tea extract powder. […] The hydrogen peroxide concentration measurements were taken using standard methods to determine the amount of hydrogen peroxide that bound to the model compounds or extracts in the dry form.

E. coli [2] = experiment: Antibacterial activity against E. coli in Muller-Hinton broth; assay type: cell-based; parameters: key: “+” means positive identification of bacterial growth; details: compound or extract alone, head 1%, 24 hours at 37° C.
Source text: (§1) The testing methods used follow the procedures set-forth by the Clinical and Laboratory Standards Institute (CLSI) and US Pharmacopeia.
(§2) E. coli was chosen as the bacteria to challenge the antibacterial activity of the bound compositions and the free hydrogen peroxide. A range of E. coli concentrations, ranging from 10-10^6 CFU/ml were used for the study. […]
(§3) Table 2 compares the antibacterial activities of each of the model compounds and extracts alone, without the formation of the bound compositions: gallic acid (a model polyphenol building block), tannic acid (a model polyphenol), pomegranate husk extract, and green tea extract were each used to challenge the E. coli alone. […]

E. coli [3] = experiment: Stability of hydrogen peroxide in aqueous solution, bound compositions vs free hydrogen peroxide, challenged with E. coli; assay type: physicochemical; details: for hydrogen peroxide concentration: 125 ppm extract + 125 ppm H2O2 (1:1), E. coli 10^6 CFU/ml
Source text: This method tests the stability of the hydrogen peroxide in the combination. The testing methods used follow the standard procedures set-forth by the Clinical and Laboratory Standards Institute (CLSI) and US Pharmacopeia. • i. E. coli was chosen as the bacteria to challenge the stability of the bound compositions and the free hydrogen peroxide. • ii. The hydrogen peroxide concentration was matched to the selected bacteria in order to form a useful curve representing hydrogen peroxide degradation over time for the samples. […] FIG. 2A compares stabilities of free hydrogen peroxide to hydrogen peroxide bound to each of: gallic acid (a model polyphenol building block), tannic acid (a model polyphenol), pomegranate husk extract, green tea extract, and Blessed thistle extract. […] John's wort, Valerian, Apple, Grape, Echinacea purpurea, Grape seed extract, and Blueberry. In both FIGS. 2A and 2B, there are curves that cannot be identified well individually, as they are identical and overlapping. […]

E. coli [4] = experiment: Antibacterial activity against E. coli in Muller-Hinton broth; assay type: cell-based; details: 100 ppm, 24 hours at 37° C.
Source text: as §1, §2, §3

E. coli [5] = experiment: as above; assay type: cell-based; parameters: key: “+” means identifiable bacterial growth.; “−” means no bacterial growth; details: 100 ppm, 24 hours at 37° C.
Source text: as §1, §2, §3

Row | SMILES | hydrogen peroxide bound, by total dry wt [1] | bacterial growth (E. coli [2]; E coli 10 CFU/ml) | bacterial growth (E. coli [2]; E coli 10^2 CFU/ml) | bacterial growth (E. coli [2]; E coli 10^3 CFU/ml) | bacterial growth (E. coli [2]; E coli 10^4 CFU/ml) | bacterial growth (E. coli [2]; E coli 10^5 CFU/ml) | bacterial growth (E. coli [2]; E coli 10^6 CFU/ml) | hydrogen peroxide concentration (E. coli [3]; 0 Hours) [ppm] | hydrogen peroxide concentration (E. coli [3]; 4 Hours) [ppm] | hydrogen peroxide concentration (E. coli [3]; 8 Hours) [ppm] | hydrogen peroxide concentration (E. coli [3]; 12 Hours) [ppm] | hydrogen peroxide concentration (E. coli [3]; 16 Hours) [ppm] | hydrogen peroxide concentration (E. coli [3]; 20 Hours) [ppm] | hydrogen peroxide concentration (E. coli [3]; 24 Hours) [ppm] | hydrogen peroxide concentration after degradation (E. coli [3]; within about the first 8 hours) [ppm] | fate of E. coli, all concentrations (E. coli [4]) | bacterial growth (E. coli [5]; E coli 10^2 CFU/ml) | bacterial growth (E. coli [5]; E coli 10^3 CFU/ml) | bacterial growth (E. coli [5]; E coli 10^4 CFU/ml) | bacterial growth (E. coli [5]; E coli 10^5 CFU/ml)
1 | O=C(O)c1cc(O)c(O)c(O)c1 [Gallic Acid, gallic acid] | about 3.0% | + | + | + | + | + | + |  |  |  |  |  |  |  |  |  |  |  |  | 
2 | OO [H2O2, hydrogen peroxide] |  |  |  |  |  |  |  | 125 | 15 | 0 | 0 | 0 | 0 | 0 | ~0.0 | managed to survive | + | + | + | +
3 | O=C(OC[C@H]1O[C@@H](OC(=O)c2cc(O)c(O)c(OC(=O)c3cc(O)c(O)c(O)c3)c2)[C@H](OC(=O)c2cc(O)c(O)c(OC(=O)c3cc(O)c(O)c(O)c3)c2)[C@@H](OC(=O)c2cc(O)c(O)c(OC(=O)c3cc(O)c(O)c(O)c3)c2)[C@@H]1OC(=O)c1cc(O)c(O)c(OC(=O)c2cc(O)c(O)c(O)c2)c1)c1cc(O)c(O)c(OC(=O)c2cc(O)c(O)c(O)c2)c1 [Tannic Acid, tannic acid] | about 2.5% | + | + | + | + | + | + |  |  |  |  |  |  |  |  |  |  |  |  | 
